From PubChem BioAssay (NCI)
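Growth conditions: 96-well plates. Treatment: test compound, 48 hours, 5 concentrations. Analysis: linear interpolation between bracketing concentrations; unreached endpoints set to highest concentration. TGI: total growth inhibition.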

How the values were obtained:
Assay in all cases: growth of human tumour cells (NCI), 48 h
786-0 renal = test system: 786-0 renal
A498 renal = test system: A498 renal
A549 NSCLC = test system: A549 NSCLC
ACHN renal = test system: ACHN renal
CCRF-CEM leukemia = test system: CCRF-CEM leukemia
COLO 205 colon = test system: COLO 205 colon
DLD-1 colon = test system: DLD-1 colon
DMS 114 small cell lung = test system: DMS 114 small cell lung
DMS 273 small cell lung = test system: DMS 273 small cell lung
EKVX NSCLC = test system: EKVX NSCLC
HCC-2998 colon = test system: HCC-2998 colon
HCT-116 colon = test system: HCT-116 colon
HCT-15 colon = test system: HCT-15 colon
HL-60(TB) leukemia = test system: HL-60(TB) leukemia
HOP-62 NSCLC = test system: HOP-62 NSCLC
HT29 colon = test system: HT29 colon
IGROV1 ovarian = test system: IGROV1 ovarian
K-562 leukemia = test system: K-562 leukemia
KM12 colon = test system: KM12 colon
KM20L2 colon = test system: KM20L2 colon
LXFL 529 NSCLC = test system: LXFL 529 NSCLC
M14 melanoma = test system: M14 melanoma
M19-MEL melanoma = test system: M19-MEL melanoma
MALME-3M melanoma = test system: MALME-3M melanoma
MOLT-4 leukemia = test system: MOLT-4 leukemia
NCI-H226 lung = test system: NCI-H226 lung
NCI-H23 lung = test system: NCI-H23 lung
NCI-H460 lung = test system: NCI-H460 lung
NCI-H522 lung = test system: NCI-H522 lung
OVCAR-3 ovarian = test system: OVCAR-3 ovarian
OVCAR-4 ovarian = test system: OVCAR-4 ovarian
OVCAR-5 ovarian = test system: OVCAR-5 ovarian
OVCAR-8 ovarian = test system: OVCAR-8 ovarian
RPMI-8226 leukemia = test system: RPMI-8226 leukemia
RXF 393 renal = test system: RXF 393 renal
SF-268 CNS = test system: SF-268 CNS
SF-295 CNS = test system: SF-295 CNS
SF-539 CNS = test system: SF-539 CNS
SK-MEL-2 melanoma = test system: SK-MEL-2 melanoma
SK-MEL-28 melanoma = test system: SK-MEL-28 melanoma
SK-OV-3 ovarian = test system: SK-OV-3 ovarian
SN12C renal = test system: SN12C renal
SNB-19 CNS = test system: SNB-19 CNS
SNB-75 CNS = test system: SNB-75 CNS
SNB-78 CNS = test system: SNB-78 CNS
SR leukemia = test system: SR leukemia
SW-620 colon = test system: SW-620 colon
TK-10 renal = test system: TK-10 renal
U251 CNS = test system: U251 CNS
UACC-257 melanoma = test system: UACC-257 melanoma
UACC-62 melanoma = test system: UACC-62 melanoma
UO-31 renal = test system: UO-31 renal
CAKI-1 renal = test system: CAKI-1 renal
HOP-18 NSCLC = test system: HOP-18 NSCLC
HOP-92 NSCLC = test system: HOP-92 NSCLC
LOX IMVI melanoma = test system: LOX IMVI melanoma
SK-MEL-5 melanoma = test system: SK-MEL-5 melanoma
XF 498 CNS = test system: XF 498 CNS

Measured: TGI

CC(C)=CC(=O)CC(=O)C(=O)Nc1ccc(Cl)c(Cl)c1
> 100 µM: 786-0 renal | A498 renal | A549 NSCLC | ACHN renal | CCRF-CEM leukemia | COLO 205 colon | DLD-1 colon | DMS 114 small cell lung | DMS 273 small cell lung | EKVX NSCLC | HCC-2998 colon | HCT-116 colon | HCT-15 colon | HL-60(TB) leukemia | HOP-62 NSCLC | HT29 colon | IGROV1 ovarian | K-562 leukemia | KM12 colon | KM20L2 colon | LXFL 529 NSCLC | M14 melanoma | M19-MEL melanoma | MALME-3M melanoma | MOLT-4 leukemia | NCI-H226 lung | NCI-H23 lung | NCI-H460 lung | NCI-H522 lung | OVCAR-3 ovarian | OVCAR-4 ovarian | OVCAR-5 ovarian | OVCAR-8 ovarian | RPMI-8226 leukemia | RXF 393 renal | SF-268 CNS | SF-295 CNS | SF-539 CNS | SK-MEL-2 melanoma | SK-MEL-28 melanoma | SK-OV-3 ovarian | SN12C renal | SNB-19 CNS | SNB-75 CNS | SNB-78 CNS | SR leukemia | SW-620 colon | TK-10 renal | U251 CNS | UACC-257 melanoma | UACC-62 melanoma | UO-31 renal

CN(C)C(=O)C1CCC(=C2C(=O)OC(C)(C)OC2=O)N1C (stereo not drawn)
> 100 µM: 786-0 renal | A498 renal | A549 NSCLC | ACHN renal | CAKI-1 renal | CCRF-CEM leukemia | COLO 205 colon | DLD-1 colon | DMS 114 small cell lung | DMS 273 small cell lung | EKVX NSCLC | HCC-2998 colon | HCT-116 colon | HCT-15 colon | HOP-18 NSCLC | HOP-62 NSCLC | HOP-92 NSCLC | HT29 colon | IGROV1 ovarian | K-562 leukemia | KM12 colon | KM20L2 colon | LOX IMVI melanoma | LXFL 529 NSCLC | M14 melanoma | M19-MEL melanoma | MALME-3M melanoma | MOLT-4 leukemia | NCI-H226 lung | NCI-H23 lung | NCI-H460 lung | NCI-H522 lung | OVCAR-3 ovarian | OVCAR-4 ovarian | OVCAR-5 ovarian | OVCAR-8 ovarian | RXF 393 renal | SF-268 CNS | SF-295 CNS | SF-539 CNS | SK-MEL-2 melanoma | SK-MEL-28 melanoma | SK-MEL-5 melanoma | SK-OV-3 ovarian | SN12C renal | SNB-19 CNS | SNB-75 CNS | SNB-78 CNS | SW-620 colon | TK-10 renal | U251 CNS | UACC-257 melanoma | UACC-62 melanoma | UO-31 renal | XF 498 CNS

Cc1cccc(C)c1NC(=O)CCCC(=O)C1CC(=O)CCC1=O (stereo not drawn)
> 100 µM: 786-0 renal | A498 renal | ACHN renal | DLD-1 colon | DMS 114 small cell lung | EKVX NSCLC | HCC-2998 colon | HCT-116 colon | HCT-15 colon | HOP-62 NSCLC | HT29 colon | KM20L2 colon | M19-MEL melanoma | MALME-3M melanoma | MOLT-4 leukemia | NCI-H226 lung | NCI-H23 lung | NCI-H522 lung | OVCAR-3 ovarian | OVCAR-4 ovarian | OVCAR-8 ovarian | RPMI-8226 leukemia | RXF 393 renal | SF-268 CNS | SF-539 CNS | SK-MEL-28 melanoma | SK-OV-3 ovarian | SN12C renal | SNB-19 CNS | SNB-75 CNS | SNB-78 CNS | SR leukemia | U251 CNS | UACC-257 melanoma | UACC-62 melanoma | UO-31 renal | XF 498 CNS

FC(F)(F)C12C34C=CC5(CCC6(C=CC1(CC3)O6)C52C(F)(F)F)O4 (stereo not drawn)
> 100 µM: 786-0 renal | A498 renal | A549 NSCLC | ACHN renal | CAKI-1 renal | CCRF-CEM leukemia | COLO 205 colon | DMS 273 small cell lung | EKVX NSCLC | HCC-2998 colon | HCT-116 colon | HL-60(TB) leukemia | HOP-18 NSCLC | HOP-62 NSCLC | HOP-92 NSCLC | HT29 colon | IGROV1 ovarian | K-562 leukemia | KM12 colon | KM20L2 colon | LOX IMVI melanoma | LXFL 529 NSCLC | M19-MEL melanoma | MALME-3M melanoma | MOLT-4 leukemia | NCI-H226 lung | NCI-H23 lung | NCI-H460 lung | NCI-H522 lung | OVCAR-3 ovarian | OVCAR-4 ovarian | OVCAR-5 ovarian | OVCAR-8 ovarian | RXF 393 renal | SF-268 CNS | SF-295 CNS | SF-539 CNS | SK-MEL-2 melanoma | SK-MEL-28 melanoma | SK-OV-3 ovarian | SN12C renal | SNB-19 CNS | SNB-78 CNS | SR leukemia | SW-620 colon | TK-10 renal | U251 CNS | UACC-257 melanoma | XF 498 CNS
